From patent publication US3950525A, “Relaxation of smooth muscle in a mammal” (Pfizer Inc., priority 1975, dated 1976)
Counter-ions that a name gives are not always drawn. Like-named read-outs stand apart in the source and are kept apart here.

Key:
[1] = system: collagen induced platelet aggregation; experiment: In Vitro Inhibition of Platelet Aggregation (collagen induced, rabbit platelet-rich plasma); type: cell-based; conditions: Oryctolagus cuniculus, 10 min; for inhibition at 600 µM: 6 × 10^^-4 mol./l.; for inhibition at 60 µM: 6 × 10^^-5 mol./l.; for inhibition at 6 µM: 6 × 10^^-6 mol./l.
Method: The ability of the compounds of the present invention to inhibit platelet aggregation in vitro is measured according to the method of Born, et al., J. Physiol., 168, 178 (1963) and comprises the following procedure: Anesthetized male rabbits are bled from a carotid artery into plastic centrifuge tubes containing 0.1 volume 3% sodium citrate. Platelet-rich plasma is separated by centrifugation at 100 G for 10 minutes at 20° C. […] After 10 minutes of incubation with the platelet-rich plasma at room temperature, collagen, a protein known to cause platelet aggregation, is added (0.27 ml. collagen/4 ml. plasma) and changes in the optical density are followed with a Spectronic 20 colorimeter attached to a Houston Instrument TY Recorder. Platelet aggregation is indicated by a decrease in optical density. The relative potency of the compounds of the present invention are thus rated on their ability to inhibit (percent) collagen induced platelet aggregation.

[2] = system: histamine aerosol induced bronchoconstriction; experiment: Bronchodilator Activity (protection of conscious guinea pigs against histamine aerosol); type: in vivo; conditions: Cavia porcellus, 1 h, read-out: % Protection
Method: Subsequent to this administration, each animal is challenged with histamine aerosol. […] Immediately after the container is subjected to the histamine spray the animal is placed within it. At the end of one minute of exposure, the respiratory status, which is a reflection of bronchoconstriction, is evaluated. Evaluation levels are designated and scored as normal breathing (0), slight deepened breathing (1), labored breathing (2), severely labored breathing and […] (3) and unconsciousness (4). Each group of animals contains 8 to 10 individual and a control group containing the same approximate number is used. […] The dose, which is given orally, is 60 mg./kg. and the animals are challenged with histamine 60 minutes later.

[3] = system: collagen induced platelet aggregation; experiment: In Vivo Inhibition of Platelet Aggregation (collagen induced aggregation in plasma of dosed dogs); design: species or system mongrel dogs; conditions: 25 mg./kg. P.O.
Method: The capacity of the compounds of the present invention to inhibit platelet aggregation in a modified in vivo test is measured by the following procedure: Unanesthetized fasted adult mongrel dogs of either sex are dosed orally (P.O.) or intravenously (I.V.) with the particular test compound. Blood samples are taken at hourly intervals and placed in plastic centrifuge tubes containing 0.1 volume 3% sodium citrate. Platelet-rich plasma is separated by centrifugation at 100 G for 10 minutes at 20° C. and treated with a collagen suspension in saline. The effect of two different levels of collagen concentration are examined; the first is a 1:20 dilution, i.e. 1 ml. of collagen suspension per 20 ml. of platelet-rich plasma (high dose), and the second, a 1:40-50 dilution (low dose). Changes in optical density are then followed with a Spectronic 20 colorimeter attached to a Houston Instrument TY Recorder. Platelet aggregation is indicated by a decrease in optical density. […] Measurements are carried out on the hourly samples, allowing for the determination of a duration of the initial effect.

[4] = system: collagen induced platelet aggregation; experiment: In vitro Inhibition of Platelet Aggregation in Human Plasma (collagen induced); type: cell-based; conditions: human platelet-rich plasma
Method: Anesthetized male rabbits are bled from a carotid artery into plastic centrifuge tubes containing 0.1 volume 3% sodium citrate. Platelet-rich plasma is separated by centrifugation at 100 G for 10 minutes at 20° C. Plasma from 3 animals is pooled; 5 ml. samples are placed into clear plastic curvettes and stirred at 1000 rpm, followed by the addition of compounds of the present invention at levels of 6 × 10^^-4 , 10^^-5 and 10^^-6 moles/liter. After 10 minutes of incubation with the platelet-rich plasma at room temperature, collagen, a protein known to cause platelet aggregation, is added (0.27 ml. collagen/4 ml. plasma) and changes in the optical density are followed with a Spectronic 20 colorimeter attached to a Houston Instrument TY Recorder. Platelet aggregation is indicated by a decrease in optical density. The relative potency of the compounds of the present invention are thus rated on their ability to inhibit (percent) collagen induced platelet aggregation.
The procedure of Example XLV is repeated except that platelet-rich plasma from nine human volunteers is employed in place of rabbit plasma. 4-(Diethylamino)-6-phenylpyrimidine hydrochloride provides the following inhibition (%) of collagen induced platelet aggregation at the indicated concentrations: […]

[5] = 60 mg./kg. oral, histamine challenge 60 minutes later

Compound | inhibition at 600 µM [1] | inhibition at 60 µM [1] | inhibition at 6 µM [1] | inhibition in vivo at 60 mg/kg [2, 5] | also measured
CCN(CC)c1cc(-c2cccc(NS(C)(=O)=O)c2)ncn1 | 95% | 21% | 9% | 19% | –
CCCN(CCC)c1cc(-c2cccc(NC(C)=O)c2)ncn1 [4-di-n-propylamino-6-(m-acetylaminophenyl)-pyrimidine] | 88% | 29% | 22% | 30% | –
CCC(=O)Nc1cccc(-c2cc(N(CC)CC)ncn2)c1 [4-diethylamino-6-(m-propionylaminophenyl)pyrimidine] | 99% | 82% | 13% | 30% | –
CCN(CC)c1cc(-c2cccc(NC(C)=O)c2)ncn1 [Ar=3-CH3CONHC6H4; R1=C2H5; R2=C2H5; R3=H, 4-Diethylamino-6-(m-acetylaminopheny)pyrimidine hydrochloride] | – | 16% | 14% | 40% | –
CCN(CC)c1cc(-c2cccc([N+](=O)[O-])c2)ncn1 [Ar=3-NO2C6H4; R1=C2H5; R2=C2H5; R3=H, 4-Diethylamino-6-(m-nitrophenyl)pyrimidine hydrochloride] | 99% | 93% | 25% | 20% | –
CCN(CC)c1cc(-c2ccccc2)ncn1.Cl [Ar=C6H5; R1=C2H5; R2=C2H5; R3=H, 4-Diethylamino-6-phenylpyrimidine hydrochloride] | 99% | – | 99% | – | Duration [3]: 5 h; Inhibition to Collagen, High ([3]; high collagen (1:20 dilution)): Complete (complete (95-100%)); Inhibition to Collagen, Low ([3]; low collagen (1:40-50 dilution)): Complete (complete (95-100%)); Mean % Inhibition ([4]; 6 × 10^^-4 mol./l.): 73%; Mean % Inhibition ([4]; 6 × 10^^-5 mol./l.): 59%; Mean % Inhibition ([4]; 6 × 10^^-6 mol./l.): 52%; Mean % Inhibition ([4]; 6 × 10^^-7 mol./l.): 15%
Cn1c(=O)c2[nH]cnc2n(C)c1=O [theophylline, reference compound] | – | – | – | – | inhibition in vivo at 60 mg/kg ([2]; po): 25%
